The source of these data is patent US20080014256A1 (priority 2005, published 2008).

The Cmax is the peak of the concentration-time curve.

Where “and” joins values, the source holds several entries; their conditions need not be identical. Identical values can stand only once. Like-named read-outs stand apart in the source and are kept apart here. Marks after values point to notes of the source that are not given here.

One data set relates to cell monolayer. The note with it: pH 6.
The conditions of data set [1]: cynomolgus monkey, in vivo, 15 mg/kg.
Description: (§1) Four male cynomolgus monkeys were used in the study. […] The dosing volume was 10 mL/kg. Blood samples (2 mL per sample) were obtained prior to dosing (0 hr) and at 0.5, 1, 2, 4, 6, 8, 12, 24, 32 and 48 hr after the oral dose. […] Blood samples (2 mL) were obtained pre-dose (0 hr) and at 5 mm., 0.5, 1, 2, 4, 6, 8, 12, 24, 32 and 48 hr post-dose. Blood samples were collected using a stainless steel needle and vacutainer tube containing sodium heparin as the anticoagulant. Blood samples were placed on ice after collection and centrifuged at approximately 4° C. Plasma samples was separated, frozen and stored at approximately −70° C. prior to analysis.
(§2) Pharmacokinetic parameters were calculated using the pharmacokinetics analysis program WinNonlin, version 2.1 (Scientific Consulting Inc.) from the individual animal concentration vs. time profiles. […] For the purpose of this analysis, no attempt was made to back extrapolate the concentration immediately after the IV bolus dose, rather the concentration at 0 hr (C0, immediately after dosing) was assumed to be equal to the first measured concentration (at 5 minutes, C5min). […] The terminal half-life (t1/2) was determined by 0.693/λ, where λ is the terminal rate constant and is determined by a log-linear fitting of the terminal portion of the concentration-time curve. AUC0-4 was calculated by AUC0-t+Ct/λ, where AUC0-t was the AUC from time 0 to t, the last quantifiable time point and Ct was the last quantifiable concentration. The area under the plasma concentration-time curve from time 0 to t (AUC0-t) was calculated using the linear trapezoidal method. Systemic clearance (CLT) after the iv dose was calculated using the formula of Dose/AUC0-4. The volume of distribution at steady-state (Vdss) was calculated using the formula of MRTiv×CLT, where MRTiv is the mean residence time after iv dosing and equals AUMC0-4/AUC0-4. For the oral dose, Cmax and tmax values were obtained by inspection of the concentration vs. time curves.
Data set [2] is described as follows: Pharmacokinetics of tigecycline after single oral (gavage) and intravenous dose in 0.9% saline.
Description: as §1, §2

Substance Tigecycline displayed a cell monolayer permeability in the data set with cell monolayer of 0.04 ×10⁻⁶ cm/s. Besides, the “AUC0-t or 0-∞” value in data set [1] is reported as 18267; in data set [1] (po), 163. In addition, in data set [2] (5 mg/kg iv, animals 1-4 and Mean), the AUC0-4 is 20178 ng·h/mL. Besides, in data set [2] (15 mg/kg oral (gavage), 0.9% saline, animals 1-4 and Mean), the Cmax is 131 ng/mL and 191 ng/mL and 178 ng/mL. Moreover, the AUC0-t in data set [2] (15 mg/kg oral (gavage), t = 2 hr (animals 1, 2, 4) or t = 1 hr (animal 3), individual and Mean) is listed as 105^c ng · hr/mL.
